Measurements published in patent US20060270862A1, “Analogs of discodermolide and dictyostatin-1, intermediates therefor and methods of synthesis thereof” (priority 2002, published 2006).
Like-named read-outs stand apart in the source and are kept apart here. One block for each molecule: values may come before it.

How the values were obtained:
MDA-MB231 (breast) = test: Cell growth inhibition (MTS), MDA-MB231; type: cell-based, human
Method: (§1) Cell Growth Inhibition[34] Cells were plated (500-2000 cells/well depending on the cell line) in 96-well microplates, allowed to attach and grow for 48 h, then treated with vehicle (4% DMSO, a concentration that allowed doubling times of 24 h or less) or test agent (50, 10, 2, 0.4 and 0.08 μM for the new agents; 0.001, 0.005, 0.010, 0.020 and 0.100 μM for paclitaxel and discodermolide) for the given times. One plate consisted of cells from each line used for a time zero cell number determination. The other plates in a given determination contained eight wells of control cells, eight wells of medium and each agent concentration tested in quadruplicate. Cell numbers were obtained spectrophotometrically (absorbance at 490 nm minus that at 630 nm) in a Dynamax plate reader after treatment with 3-(4,5-dimethylthiazol-2-yl)-5-(3-carboxymethoxyphenyl)-2-(4-sulfophenyl)-2H-tetrazolium (MTS) using phenazine methanesulfonate as the electron acceptor. After initial screening with the above 5-fold dilutions, fifty percent growth inhibitory concentration (GI50) values were determined for each agent by repeating the screen using 2-fold dilutions (five concentrations) centered on the initial estimated GI50 concentration, again in quadruplicate.

2008 (ovarian) = test: Cell growth inhibition (MTS), 2008; type: cell-based, human
Method: as §1

[1] = tested on: paclitaxel binding site on tubulin; test: Paclitaxel binding site inhibition assay ([3H]paclitaxel displacement from microtubules); design: species or system bovine; conditions: for Displacement of [3H]paclitaxel (%): 4 μM test agent, 2 μM [3H]paclitaxel, microtubules from 2 μM tubulin and 20 μM dideoxyGTP
Method: (§2) General. Tubulin without microtubule-associated proteins was prepared from fresh bovine brains[32] The normoisotopic and tritiated forms of paclitaxel and normoisotopic docetaxel were provided by the Drug Synthesis and Chemistry Branch, National Cancer Institute. (+)-Discodermolide was from Novartis Pharmaceutical Corporation. Ca^2+- and Mg^2+-free RPMI-1640 culture medium were from GIBCO/BRL-Life Technologies. Fetal bovine serum (FBS) was from Hyclone. Cell lines were obtained from American Type Culture Collection (Manassas, Va.).
Paclitaxel binding site inhibition assay. A stock solution of [^3H]paclitaxel (26.8 μM, 16.2 Ci/mmol), obtained from the NCI, was prepared in 37% (v/v) DMSO. The test agents were prepared in 25% (v/v) DMSO-0.75 M monosodium glutamate (prepared from a 2M stock solution adjusted to pH 6.6 with HCl). The radiolabeled paclitaxel and test agents, as indicated in terms of final concentrations, were mixed in equal volumes and warmed to 37° C. A reaction mixture (50 μL) containing 0.75 M monosodium glutamate, 4.0 μM tubulin, and 40 μM ddGTP (a non-hydrolyzable analog of GTP) was prepared and incubated at 37° C. for 30 min to preform microtubules. An equivalent volume of drug mixture with [^3H]paclitaxel was added to preformed polymer and incubated for 30 min at 37° C. Bound [^3H]paclitaxel was separated from free drug by centrifugation of the reaction mixtures at 14000 rpm for 20 min at room temperature. Non-specific binding was determined by addition of a 12-fold excess of docetaxel. Radioactive counts from the supernatant (50 μL) were determined by scintillation spectrometry. Bound [^3H]paclitaxel was calculated from the following: total paclitaxel added to each reaction mixture minus the paclitaxel present in the supernatant (free drug). The % bound values were normalized to the control values with no inhibitor added.

[2] = ester bond, 2,4,6-trichlorobenzoyl chloride / Et3N / DMAP, toluene, 25.0 °C, 16.0 h
tubulin = type: biochemical, bovine; conditions: for properties of the induced polymer: speed of induction, resistance to cold-induced disassembly (in words): FIGS. 6A, 6C, 6D, analogs at somewhat lower potencies than discodermolide; for microtubule hypernucleation activity (in words): comparison with analog 40, FIGS. 6A-D and Table 1; for MT stabilizing activity (%): tubulin assembly induced by test agent at 10 μM vs. 10 μM paclitaxel (100%), single determinations at 30° C.
Method: as §2
Tubulin Polymerization[32] Tubulin assembly was followed in a Beckman-Coulter 7400 spectrophotometer, equipped with an electronic Peltier temperature controller, reading absorbance (turbidity) at 350 nm. Reaction mixtures (0.25 mL final volume) contained tubulin (final concentration 10 μM; 1 mg/mL), monosodium glutamate (0.8 M from a stock solution adjusted to pH 6.6 with HCl), DMSO (final volume 4% v/v), and differing concentrations of test agent where indicated. Reaction mixtures without test agent were cooled to 0° C. and added to cuvettes held at 0.25-0.5° C. in the spectrophotometer. Test agent in DMSO was then rapidly mixed in the reaction mixture. Each run contained one positive control (paclitaxel, 10 μM final concentration) and one negative control (DMSO only). Baselines were established at 0.25-2.5° C. and temperature was rapidly raised to 30° C. (in approximately 1 min) and held there for 20 min.

PC3 (prostate) = test: Cell growth inhibition (MTS), PC3; type: cell-based; conditions: Homo sapiens; 72 h continuous exposure; mean ± SD, N = 4; read-out: GI50 PC3 (prostate)
Method: as §1

[3] = Homo sapiens, MDA-MB-231, 48 h, read-out: GI50 MDA-MB-231 (breast)
[4] = Homo sapiens, MDA-MB-231, read-out: 50% growth inhibitory concentration
[5] = Homo sapiens, 48 h, read-out: GI50 2008 (ovary)
[6] = Table 2, applies to both human cancer cell lines, breast (MDA-MB-231) and ovarian (2008), read-out: 50% growth inhibitory concentration

Compound: C=CC=C[C@H](C)[C@H]1OC(=O)CCCCCCCCC=C[C@H](C)[C@H](O)[C@@H](C)C=CCC[C@@H](O)[C@H]1C [Compound 43, (1S,13S,14S,15S,20R,21R,22R)-14,20-Dihydroxy-13,15,21-trimethyl-22-(1-methylpenta-2,4-dienyl)-oxacyclodocosa-11,16-dien-2-one]
- GI50 (MDA-MB231 (breast); [3]): 27 ± 1 µM
- IC50 (MDA-MB231 (breast); [4]): 15 to 30 µM
- GI50 (2008 (ovarian); [5]): 16 ± 1 µM
- Displacement of [3H]paclitaxel (%) ([1]; N = 6, means ± SD): 18 ± 5%

Compound: C=CC=CC(C)[C@H]1OC(=O)C=CC=C[C@@H](C)[C@H](O)CCC=C[C@H](C)[C@H](O)[C@@H](C)C=CCC[C@@H](O)[C@H]1C (stereo partly drawn) [Compound 54, (7R,8R,13S,14S,15S,20R,21R,22R,23S)-8,14,20-Trihydroxy-7,13,15,21-tetramethyl-22-(1-methylpenta-2,4-dienyl)-oxacyclodocosa-3,5,11,16-tetraen-2-one]
- GI50 (MDA-MB231 (breast); 72 hours continuous exposure (footnote b), mean ± SD, N = 4, read-out: GI50 MDA-MB-231 (breast)): 1.4 ± 0.1 µM
- IC50 (MDA-MB231 (breast); [6]): ~1 µM
- GI50 (2008 (ovarian); 72 hours continuous exposure (footnote b), mean ± SD, N = 4, read-out: GI50 2008 (ovary)): 1 ± 0.1 µM
- Displacement of [3H]paclitaxel (%) ([1]; N = 6, means ± SD): 27 ± 8%
- potency of [3H]paclitaxel displacement relative to discodermolide ([1]; [3H]paclitaxel stoichiometrically bound to microtubules): about ⅓

Compound: C=C/C=C\[C@H](C)[C@H]1OC(=O)CCCCCCCC/C=C\[C@H](C)[C@H](OCc2ccc(OC)cc2)[C@@H](C)/C=C\CC[C@@H](OCc2ccc(OC)cc2)[C@H]1C
- ring closure, yield of all isomers ([2]; from C=C/C=C\[C@H](C)[C@@H](O)[C@H](C)[C@@H](CC/C=C\[C@H](C)[C@@H](OCc1ccc(OC)cc1)[C@@H](C)/C=C\CCCCCCCCC(=O)O)OCc1ccc(OC)cc1, 1.93 mM): 57%

Compound: C=C/C=C\[C@H](C)[C@H](OC(N)=O)[C@@H](C)[C@H](O)CC/C=C\[C@H](C)[C@H](O)[C@@H](C)/C=C\CC[C@@H]1OC(=O)[C@H](C)[C@@H](OCOC)[C@H]1C [Compound 41]
- 50% growth inhibitory (GI50) concentration (in words) (MDA-MB231 (breast); cellular activity, cell line not given): submicromolar
- affinity for the paclitaxel binding site on tubulin (in words) [1]: considerable affinity
- Displacement of [3H]paclitaxel (%) [1]: 57 ± 2%
- displacement of [3H]paclitaxel from microtubules, comparison (in words) ([1]; 2-fold molar excess of test agent): better than paclitaxel and at almost the same potency as discodermolide
- properties of the induced polymer: speed of induction, resistance to cold-induced disassembly (in words) (tubulin): more rapid polymer-inducing and cold-resistant properties
- microtubule hypernucleation activity (in words) (tubulin): better microtubule hypernucleation activities than the analog 40
- MT stabilizing activity (%) (tubulin): 27%

- GI50 (MDA-MB231 (breast); Homo sapiens, MDA-MB-231, 72 h continuous exposure, mean ± SD, N = 4, read-out: GI50 MDA-MB231 (breast)): 0.0024 ± 0.0016 µM
- GI50 (PC3 (prostate)): 0.015 ± 0.002 µM
- Displacement of [3H]paclitaxel (%) [1]: 37 ± 1%
Compound: CC(=O)O[C@H]1C(=O)[C@@]2(C)[C@H]([C@H](OC(=O)c3ccccc3)[C@]3(O)C[C@H](OC(=O)[C@H](O)[C@@H](NC(=O)c4ccccc4)c4ccccc4)C(C)=C1C3(C)C)[C@]1(OC(C)=O)CO[C@@H]1C[C@@H]2O [paclitaxel, reference compound]
- GI50 (2008 (ovarian); Homo sapiens, 72 h continuous exposure, mean ± SD, N = 4, read-out: GI50 2008 (ovarian)): 0.0092 ± 0.0016 µM
- MT stabilizing activity (%) (tubulin): 100%

Compound: C=C/C=C\[C@H](C)[C@H]1OC(=O)/C=C\C=C\[C@@H](C)[C@H](OCc2ccc(OC)cc2)CC/C=C\[C@H](C)[C@H](OCc2ccc(OC)cc2)[C@@H](C)/C=C\CC[C@@H](OCc2ccc(OC)cc2)[C@H]1C
- ring closure, yield of all isomers ([2]; from C=C/C=C\[C@H](C)[C@@H](O)[C@H](C)[C@@H](CC/C=C\[C@H](C)[C@@H](OCc1ccc(OC)cc1)[C@@H](C)/C=C\CC[C@@H](OCc1ccc(OC)cc1)[C@H](C)/C=C/C=C\C(=O)O)OCc1ccc(OC)cc1, 2 steps): 79%

- GI50 (MDA-MB231 (breast); Homo sapiens, MDA-MB-231, 48 hours continuous exposure, mean ± SD, N = 4, read-out: GI50 MDA-MB-231 (breast)): > 50 µM
- IC50 (MDA-MB231 (breast); [6]): > 50 µM
- Displacement of [3H]paclitaxel (%) ([1]; N = 6, means ± SD): 16 ± 3%
Compound: C=CC=C[C@H](C)[C@@H](O)[C@H](C)[C@H](O)CCC=C[C@H](C)[C@@H](O)[C@@H](C)C=CCCCCCCCCC(=O)O [Compound 49, (12S,13S,14S,19R,20R,21R,22S)-13,19,21-Trihydroxy-12,14,20,22-tetramethylhexacosa-10,15,23,25-tetraenoic acid]
- GI50 (2008 (ovarian); Homo sapiens, 48 hours continuous exposure, mean ± SD, N = 4, read-out: GI50 2008 (ovary)): > 50 µM

Compound: C=C/C=C\[C@H](C)[C@@H]1OC(=O)/C=C\C=C\[C@@H](C)[C@@H](O[Si](C)(C)C(C)(C)C)C[C@H](O[Si](C)(C)C(C)(C)C)/C=C\[C@H](C)[C@H](O)[C@@H](C)C[C@@H](C)CCC(O[Si](C)(C)C(C)(C)C)[C@@H]1C (stereo partly shown)
- ring closure, yield of all isomers ([2]; from C=C/C=C\[C@H](C)[C@H](O)[C@@H](C)C(CC[C@H](C)C[C@H](C)[C@@H](O)[C@@H](C)/C=C\[C@H](C[C@H](O[Si](C)(C)C(C)(C)C)[C@H](C)/C=C/C=C\C(=O)O)O[Si](C)(C)C(C)(C)C)O[Si](C)(C)C(C)(C)C, 1.77 mM, 2 steps): 49%

Compound: C=C/C=C\[C@H](C)[C@H](OC(N)=O)[C@@H](C)[C@H](O)CC/C=C\[C@H](C)[C@H](O)[C@@H](C)/C=C\CC[C@@H]1O[C@@H](OC)[C@H](C)[C@@H](OCOC)[C@H]1C [Compound 42, Carbamic acid, (1S,2S,3R,6Z,8S,9S,1S,11Z)-3,9-dihydroxy-14-[(2S,3S,4S,5R,6R)-6-methoxy-4-methoxymethoxy-3,5-dimethyltetrahydropyran-2-yl]-2,8,10-trimethyl-1-[(1S,2Z)-1-methylpenta-2,4-dienyl]tetradeca-6,11-dienyl ester]
- Displacement of [3H]paclitaxel (%) [1]: 19 ± 2%
- properties of the induced polymer: speed of induction, resistance to cold-induced disassembly (in words) (tubulin): more rapid polymer-inducing and cold-resistant properties
- microtubule hypernucleation activity (in words) (tubulin): better microtubule hypernucleation activities than the analog 40
- MT stabilizing activity (%) (tubulin): 11%

Compound: C=CC=C[C@H](C)[C@@H](O)[C@H](C)[C@H](O)CCC=C[C@H](C)[C@@H](O)[C@@H](C)C=CCCCCCCCCC(=O)OC [Compound 48, (12S,13S,14S,19R,20R,21R,22S)-13,19,21-Trihydroxy-12,14,20,22-tetramethylhexacosa-10,15,23,25-tetraenoic acid methyl ester]
- GI50 (MDA-MB231 (breast); [3]): 26 ± 3 µM
- IC50 (MDA-MB231 (breast); [4]): 15 to 30 µM
- GI50 (2008 (ovarian); [5]): 19 ± 2 µM
- Displacement of [3H]paclitaxel (%) ([1]; N = 6, means ± SD): 17 ± 1%

Compound: C=CC=C[C@H](C)[C@@H](O)[C@H](C)[C@H](O)CCC=C[C@H](C)[C@@H](O)[C@@H](C)C=CCCCCCCCCCO [Compound 47, (12S,13S,14S,19R,20R,21R,22S)-12,14,20,22-Tetramethylhexacosa-10,15,23,25-tetraene-1,13,19,21-tetraol]
- GI50 (MDA-MB231 (breast); [3]): 18 ± 1 µM
- IC50 (MDA-MB231 (breast); [4]): 15 to 30 µM
- GI50 (2008 (ovarian); [5]): 22 ± 5 µM
- Displacement of [3H]paclitaxel (%) ([1]; N = 6, means ± SD): 21 ± 2%
